Reference: patent publication US8980888B2, “Pyrazole derivative” (Mochida Pharmaceutical Co., Ltd., priority 2013, dated 2015)

How the values were obtained:
[1] = target: T1, Human PDE10 (Homo sapiens, UniProt Q9Y233); test: Human PDE10 inhibitory effect (IMAP TR-FRET enzyme inhibition assay); assay type: biochemical; conditions: PDE10 inhibitory activity, cAMP substrate
T1 construct: purchased BPA Bioscience (so in the source)
Summary of the method: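 Human PDE10 solution (2 ng/mL) was preincubated with compound for 5 min at room temperature in Tris-HCl pH 7.2, 10 mM MgCl2 and 0.1% BSA. cAMP substrate solution (400 nM) was then added for 60 min, followed by IMAP TR-FRET binding for ≥3 h. The 5′-AMP formed was read at ex 340 nm and em 490/520 nm, with solvent wells set at 0% and no-enzyme wells at 100%; IC50 was derived.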

[2] = test system: dopamine level in the rat brain; conditions: according to U.S. Patent Application No. 2003/0032579; cited from earlier work
[3] = test system: haloperidol-induced catalepsy; conditions: rat; according to U.S. Patent Application No. 2003/0032579; cited from earlier work
[4] = test system: apomorphine-induced stereotypy; conditions: rats; according to U.S. Patent Application No. 2003/0032579; cited from earlier work

T1 sequence (Q9Y233 whole entry): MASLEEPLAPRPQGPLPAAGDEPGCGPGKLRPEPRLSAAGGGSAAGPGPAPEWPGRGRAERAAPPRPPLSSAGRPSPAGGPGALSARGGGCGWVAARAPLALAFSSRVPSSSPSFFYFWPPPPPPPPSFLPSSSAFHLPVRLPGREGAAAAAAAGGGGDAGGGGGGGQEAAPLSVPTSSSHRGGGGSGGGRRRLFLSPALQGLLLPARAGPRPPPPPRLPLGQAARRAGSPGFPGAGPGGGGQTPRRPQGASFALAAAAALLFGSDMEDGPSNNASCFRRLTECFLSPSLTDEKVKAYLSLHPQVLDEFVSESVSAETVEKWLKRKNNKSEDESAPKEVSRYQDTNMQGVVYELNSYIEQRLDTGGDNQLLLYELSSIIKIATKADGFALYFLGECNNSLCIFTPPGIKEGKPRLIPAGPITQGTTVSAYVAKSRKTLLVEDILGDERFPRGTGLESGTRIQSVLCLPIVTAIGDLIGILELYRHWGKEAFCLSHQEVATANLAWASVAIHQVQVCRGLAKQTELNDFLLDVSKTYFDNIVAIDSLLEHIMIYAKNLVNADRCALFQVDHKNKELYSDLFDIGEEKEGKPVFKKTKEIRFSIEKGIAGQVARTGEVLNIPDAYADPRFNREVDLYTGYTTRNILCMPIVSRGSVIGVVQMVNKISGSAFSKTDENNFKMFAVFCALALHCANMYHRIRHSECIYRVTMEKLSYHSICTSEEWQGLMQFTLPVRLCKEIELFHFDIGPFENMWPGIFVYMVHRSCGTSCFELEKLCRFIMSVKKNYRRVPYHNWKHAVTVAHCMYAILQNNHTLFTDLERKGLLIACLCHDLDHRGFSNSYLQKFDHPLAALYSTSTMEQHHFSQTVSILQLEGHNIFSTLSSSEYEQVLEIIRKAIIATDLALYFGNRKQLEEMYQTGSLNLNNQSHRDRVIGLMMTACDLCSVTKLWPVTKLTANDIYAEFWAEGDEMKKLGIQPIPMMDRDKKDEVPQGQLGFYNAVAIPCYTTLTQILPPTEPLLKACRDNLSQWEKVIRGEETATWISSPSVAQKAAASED

Row | Structure (SMILES) | IC50 [1] [nM] | dopamine level in the rat brain [2] | haloperidol-induced catalepsy [3] | apomorphine-induced stereotypy [4]
1 | CC(=O)c1sc(C)nc1-c1cnn(C)c1C(=O)NC1CCn2nc(-c3cccc(F)c3)nc2C1 (stereo not shown) [Example 5.44, 4-(5-acetyl-2-methylthiazol-4-yl)-N-(2-(3-fluorophenyl)-5,6,7,8-tetrahydro-[1,2,4]triazolo[1,5-a]pyridin-7-yl)-1-methyl-1H-pyrazole-5-carboxamide] | 5 to 100 | – | – | –
2 | COc1ccc(Cc2nccc3cc(OC)c(OC)cc23)cc1OC [papaverine] | – | decreases | increases | decreases

Now from value to molecule, other results behind:

Row | IC50 [1] [nM] | Structure (SMILES) | dopamine level in the rat brain [2] | haloperidol-induced catalepsy [3] | apomorphine-induced stereotypy [4]
3 | 5 to 100 | Cc1nc(-c2cnn(C)c2C(=O)NC2CCn3nc(-c4ccc(F)cc4)nc3C2)sc1C1CC1 (stereo not shown) [Example 5.43, 4-(5-cyclopropyl-4-methylthiazol-2-yl)-N-(2-(4-fluorophenyl)-5,6,7,8-tetrahydro-[1,2,4]triazolo[1,5-a]pyridin-7-yl)-1-methyl-1H-pyrazole-5-carboxamide] | – | – | –
4 | < 5 | Cn1ncc(-c2nc(C(F)(F)F)cs2)c1C(=O)NC1CCn2nc(N3CCCC3)nc2C1 (stereo not shown) [Example 5.46, 1-methyl-N-(2-(pyrrolidin-1-yl)-5,6,7,8-tetrahydro-[1,2,4]triazolo[1,5-a]pyridin-7-yl)-4-(4-(trifluoromethyl)thiazol-2-yl)-1H-pyrazole-5-carboxamide] | – | – | –
5 | 5 to 100 | Cc1cccc(-c2cnn(C)c2C(=O)NC2CCn3nc(N4CCCC4)nc3C2)n1 (stereo not shown) [Example 5.47, 1-methyl-4-(6-methylpyridin-2-yl)-N-(2-(pyrrolidin-1-yl)-5,6,7,8-tetrahydro-[1,2,4]triazolo[1,5-a]pyridin-7-yl)-1H-pyrazole-5-carboxamide] | – | – | –
